Experimental data taken from ChEMBL document CHEMBL5537178, “Discovery of TP0628103: A Highly Potent and Selective MMP-7 Inhibitor with Reduced OATP-Mediated Clearance Designed by Shifting Isoelectric Points” (J Med Chem, 2024).

Columns and labels:
CYP2C9 = CYP2C9 (Homo sapiens, UniProt P11712); assay: Inhibition of CYP2C9 in human liver microsomes at 10 uM by LC-MS/MS analysis relative to control; assay type: ADME, Microsome
CYP2C19 = CYP2C19 (Homo sapiens, UniProt P33261); assay: Inhibition of CYP2C19 in human liver microsomes at 10 uM by LC-MS/MS analysis relative to control; assay type: ADME, Microsome
[1] = target: Voltage-gated inwardly rectifying potassium channel KCNH2 (Homo sapiens, UniProt Q12809); assay: Inhibition of hERG at 10 uM; assay type: toxicity
Collagenase 3 = Collagenase 3 (Homo sapiens, UniProt P45452); assay: Inhibition of recombinant human MMP13 assessed as enzyme activity by measuring fluorescence using fluorogenic peptide substrate
[2] = Fraction unbound in monkey; assay type: ADME, Macaca mulatta; conditions: rhesus monkey
HepG2 = assay: Cytotoxicity against human HepG2 cells at 10 uM; assay type: toxicity, cell-based; conditions: hepg2, 10 µM
CYP3A [3] = target: T1, CYP3A (Homo sapiens, UniProt P08684+P20815+P24462+Q9HB55); assay: Inhibition of CYP3A in human liver microsomes using testosterone as substrate at 10 uM by LC-MS/MS analysis relative to control; assay type: ADME, Microsome; conditions: probe testosterone
CYP2B6 = target: T2, CYP2B6 (Homo sapiens, UniProt P20813); assay: Time dependent inhibition of CYP2B6 in human liver microsomes at 10 uM by LC-MS/MS analysis relative to control; assay type: ADME, Microsome; conditions: read-out: TDI
T2 sequence (P20813 whole entry): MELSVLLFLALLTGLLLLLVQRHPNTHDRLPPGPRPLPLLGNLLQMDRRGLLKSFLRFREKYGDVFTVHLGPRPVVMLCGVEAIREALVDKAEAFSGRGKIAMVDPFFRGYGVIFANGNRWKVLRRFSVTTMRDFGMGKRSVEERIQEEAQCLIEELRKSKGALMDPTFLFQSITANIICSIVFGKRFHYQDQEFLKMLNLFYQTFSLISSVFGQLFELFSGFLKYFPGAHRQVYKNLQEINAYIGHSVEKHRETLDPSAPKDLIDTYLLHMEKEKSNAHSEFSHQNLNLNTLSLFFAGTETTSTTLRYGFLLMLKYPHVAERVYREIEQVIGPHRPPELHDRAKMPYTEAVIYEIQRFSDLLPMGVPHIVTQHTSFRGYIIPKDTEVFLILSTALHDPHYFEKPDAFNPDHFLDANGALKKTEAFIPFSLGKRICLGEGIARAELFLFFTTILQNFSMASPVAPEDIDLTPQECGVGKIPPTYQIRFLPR

CYP2C8 = target: T3, CYP2C8 (Homo sapiens, UniProt P10632); assay: Inhibition of CYP2C8 in human liver microsomes at 10 uM by LC-MS/MS analysis relative to control; assay type: ADME, Microsome
T3 sequence (P10632 whole entry): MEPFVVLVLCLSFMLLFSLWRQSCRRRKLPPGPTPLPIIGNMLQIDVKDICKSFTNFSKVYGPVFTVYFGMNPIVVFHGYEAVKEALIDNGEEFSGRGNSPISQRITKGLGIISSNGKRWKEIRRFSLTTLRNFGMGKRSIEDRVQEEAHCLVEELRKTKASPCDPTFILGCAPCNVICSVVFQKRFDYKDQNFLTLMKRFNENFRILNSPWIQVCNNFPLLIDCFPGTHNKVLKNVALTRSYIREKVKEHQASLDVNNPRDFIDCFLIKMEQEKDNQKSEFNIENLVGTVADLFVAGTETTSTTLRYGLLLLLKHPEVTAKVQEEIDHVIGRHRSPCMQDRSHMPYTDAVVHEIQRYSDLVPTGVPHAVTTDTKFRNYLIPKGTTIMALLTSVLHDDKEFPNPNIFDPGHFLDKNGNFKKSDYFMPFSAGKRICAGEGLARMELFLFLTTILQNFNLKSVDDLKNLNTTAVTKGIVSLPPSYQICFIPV

CYP1A2 = target: T4, CYP1A2 (Homo sapiens, UniProt P05177); assay: Time dependent inhibition of CYP1A2 in human liver microsomes at 10 uM by LC-MS/MS analysis relative to control; assay type: ADME, Microsome; conditions: read-out: TDI
T4 sequence (P05177 whole entry): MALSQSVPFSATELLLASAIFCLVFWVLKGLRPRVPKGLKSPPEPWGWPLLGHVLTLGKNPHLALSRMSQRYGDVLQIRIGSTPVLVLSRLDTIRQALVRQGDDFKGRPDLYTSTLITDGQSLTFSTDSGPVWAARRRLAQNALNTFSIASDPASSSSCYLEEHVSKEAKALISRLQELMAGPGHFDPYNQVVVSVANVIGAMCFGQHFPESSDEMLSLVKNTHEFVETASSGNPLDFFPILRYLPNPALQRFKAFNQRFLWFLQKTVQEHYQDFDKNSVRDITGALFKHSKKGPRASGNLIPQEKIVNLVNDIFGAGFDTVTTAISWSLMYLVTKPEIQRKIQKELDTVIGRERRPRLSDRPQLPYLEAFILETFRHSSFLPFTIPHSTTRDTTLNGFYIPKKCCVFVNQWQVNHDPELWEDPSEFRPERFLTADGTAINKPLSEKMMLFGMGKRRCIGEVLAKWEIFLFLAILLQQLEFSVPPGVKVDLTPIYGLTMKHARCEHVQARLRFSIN

[4] = Fraction unbound in human; assay type: ADME
Interstitial collagenase = target: T5, Interstitial collagenase (Homo sapiens, UniProt P03956); assay: Inhibition of recombinant human MMP1 assessed as enzyme activity by measuring fluorescence using fluorogenic peptide substrate
T5 sequence (P03956 whole entry): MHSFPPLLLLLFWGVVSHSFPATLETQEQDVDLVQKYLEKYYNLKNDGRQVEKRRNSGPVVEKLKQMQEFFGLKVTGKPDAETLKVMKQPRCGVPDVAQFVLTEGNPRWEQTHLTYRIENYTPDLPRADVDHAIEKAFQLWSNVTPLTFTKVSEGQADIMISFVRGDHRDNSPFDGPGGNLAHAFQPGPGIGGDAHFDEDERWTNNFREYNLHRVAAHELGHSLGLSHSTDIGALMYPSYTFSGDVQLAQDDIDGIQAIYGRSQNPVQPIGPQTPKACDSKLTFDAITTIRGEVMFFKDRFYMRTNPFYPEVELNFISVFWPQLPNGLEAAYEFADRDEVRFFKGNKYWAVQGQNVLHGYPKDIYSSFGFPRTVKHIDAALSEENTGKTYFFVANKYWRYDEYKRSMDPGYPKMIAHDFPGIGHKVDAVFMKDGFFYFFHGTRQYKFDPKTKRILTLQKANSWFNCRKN

[5] = target: Macrophage metalloelastase (Homo sapiens, UniProt P39900); assay: Inhibition of recombinant human MMP12 assessed as enzyme activity by measuring fluorescence using fluorogenic peptide substrate
CYP3A [6] = target: T1, CYP3A; assay: Time dependent inhibition of CYP3A in human liver microsomes using midazolam as substrate at 10 uM by LC-MS/MS analysis relative to control; assay type: ADME, Microsome; conditions: probe midazolam, read-out: TDI
[7] = Volume of distribution at steady state in Sprague-Dawley rat at 0.5 mg/kg, iv; assay type: ADME, organism-based; conditions: in vivo, read-out: Vdss
[8] = Clearance in cynomolgus monkey at 1 mg/kg, iv; assay type: ADME, organism-based, Macaca fascicularis; conditions: in vivo
[9] = Clearance in Sprague-Dawley rat at 0.5 mg/kg, iv; assay type: ADME, organism-based; conditions: in vivo
CYP3A [10] = target: T1, CYP3A; assay: Time dependent inhibition of CYP3A in human liver microsomes using testosterone as substrate at 10 uM by LC-MS/MS analysis relative to control; assay type: ADME, Microsome; conditions: probe testosterone, read-out: TDI

Sequence of Macrophage metalloelastase (P39900 whole entry): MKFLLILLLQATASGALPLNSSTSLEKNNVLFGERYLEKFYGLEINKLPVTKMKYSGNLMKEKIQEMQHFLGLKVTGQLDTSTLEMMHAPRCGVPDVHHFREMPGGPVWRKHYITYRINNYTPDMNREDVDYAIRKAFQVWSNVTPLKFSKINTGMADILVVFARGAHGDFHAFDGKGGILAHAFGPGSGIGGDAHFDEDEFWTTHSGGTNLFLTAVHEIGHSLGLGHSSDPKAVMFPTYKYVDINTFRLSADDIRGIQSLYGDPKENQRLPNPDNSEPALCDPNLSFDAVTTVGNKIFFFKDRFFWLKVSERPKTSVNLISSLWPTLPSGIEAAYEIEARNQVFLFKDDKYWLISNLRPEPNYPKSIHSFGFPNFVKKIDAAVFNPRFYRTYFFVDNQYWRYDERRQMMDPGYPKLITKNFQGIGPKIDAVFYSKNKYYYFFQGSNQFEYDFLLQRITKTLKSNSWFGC
Sequence of CYP2C19 (P33261 whole entry): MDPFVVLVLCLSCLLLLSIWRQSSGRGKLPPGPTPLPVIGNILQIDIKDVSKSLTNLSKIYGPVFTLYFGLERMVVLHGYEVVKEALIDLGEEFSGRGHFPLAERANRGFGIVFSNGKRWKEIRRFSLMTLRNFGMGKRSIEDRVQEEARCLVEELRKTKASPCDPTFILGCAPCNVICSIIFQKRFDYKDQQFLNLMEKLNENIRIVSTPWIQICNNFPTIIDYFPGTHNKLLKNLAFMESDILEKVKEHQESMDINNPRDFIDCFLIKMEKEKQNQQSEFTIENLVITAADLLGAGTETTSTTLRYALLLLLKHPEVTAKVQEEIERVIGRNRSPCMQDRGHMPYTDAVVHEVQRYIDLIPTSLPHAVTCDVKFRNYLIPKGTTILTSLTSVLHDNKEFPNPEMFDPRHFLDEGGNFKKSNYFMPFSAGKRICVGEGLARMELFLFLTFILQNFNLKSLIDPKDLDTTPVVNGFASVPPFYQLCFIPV
Sequence of Voltage-gated inwardly rectifying potassium channel KCNH2 (Q12809 whole entry): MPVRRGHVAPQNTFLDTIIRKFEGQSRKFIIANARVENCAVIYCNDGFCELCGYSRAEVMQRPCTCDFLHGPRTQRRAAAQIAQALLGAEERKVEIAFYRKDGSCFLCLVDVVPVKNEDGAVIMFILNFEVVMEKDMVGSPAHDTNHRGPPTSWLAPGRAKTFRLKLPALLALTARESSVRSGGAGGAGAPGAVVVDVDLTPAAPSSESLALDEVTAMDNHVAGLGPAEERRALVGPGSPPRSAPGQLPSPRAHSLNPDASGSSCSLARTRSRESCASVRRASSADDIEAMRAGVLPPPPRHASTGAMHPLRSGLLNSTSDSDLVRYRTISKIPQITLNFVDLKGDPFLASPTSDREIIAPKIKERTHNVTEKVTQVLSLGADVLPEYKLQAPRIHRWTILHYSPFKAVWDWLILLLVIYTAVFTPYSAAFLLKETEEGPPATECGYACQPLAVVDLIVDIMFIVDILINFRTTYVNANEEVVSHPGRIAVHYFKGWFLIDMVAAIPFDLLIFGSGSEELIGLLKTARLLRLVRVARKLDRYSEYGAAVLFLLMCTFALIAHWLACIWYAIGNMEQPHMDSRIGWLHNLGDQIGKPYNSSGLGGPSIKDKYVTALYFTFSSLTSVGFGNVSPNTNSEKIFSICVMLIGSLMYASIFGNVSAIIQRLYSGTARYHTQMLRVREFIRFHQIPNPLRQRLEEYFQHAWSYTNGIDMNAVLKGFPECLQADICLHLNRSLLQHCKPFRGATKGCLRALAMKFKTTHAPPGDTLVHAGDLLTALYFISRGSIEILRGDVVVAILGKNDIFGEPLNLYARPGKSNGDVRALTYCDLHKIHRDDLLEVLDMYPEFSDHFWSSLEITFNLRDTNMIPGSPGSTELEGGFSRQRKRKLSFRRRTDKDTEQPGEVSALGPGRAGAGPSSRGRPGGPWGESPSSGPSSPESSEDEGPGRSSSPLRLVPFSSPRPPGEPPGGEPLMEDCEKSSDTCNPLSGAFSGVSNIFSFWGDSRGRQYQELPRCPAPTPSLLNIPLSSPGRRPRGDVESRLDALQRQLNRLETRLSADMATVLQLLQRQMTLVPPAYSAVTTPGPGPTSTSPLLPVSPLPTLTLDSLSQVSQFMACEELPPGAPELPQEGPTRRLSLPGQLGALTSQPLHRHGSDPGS
Sequence of CYP2C9 (P11712 whole entry): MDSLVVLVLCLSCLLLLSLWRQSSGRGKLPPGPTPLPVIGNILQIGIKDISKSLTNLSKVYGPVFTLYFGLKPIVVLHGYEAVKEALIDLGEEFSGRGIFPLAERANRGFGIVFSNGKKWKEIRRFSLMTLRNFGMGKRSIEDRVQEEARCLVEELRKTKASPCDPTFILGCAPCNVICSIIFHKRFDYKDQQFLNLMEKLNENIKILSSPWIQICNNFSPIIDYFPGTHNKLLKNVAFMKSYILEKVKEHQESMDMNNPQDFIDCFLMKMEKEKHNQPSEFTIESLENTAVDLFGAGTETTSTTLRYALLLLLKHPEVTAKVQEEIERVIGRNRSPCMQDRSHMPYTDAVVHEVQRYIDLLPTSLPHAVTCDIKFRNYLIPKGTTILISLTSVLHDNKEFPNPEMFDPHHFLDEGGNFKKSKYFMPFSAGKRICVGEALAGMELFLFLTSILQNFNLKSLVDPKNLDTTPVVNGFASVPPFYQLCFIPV

## CC(C)(C)[C@H](NC(=O)[C@H](Cc1ccncc1)NC(=O)CNC(=O)CC[C@H](NS(=O)(=O)c1ccc(Cl)c(C(F)(F)F)c1)C(=O)O)C(=O)Nc1ccc(C(=O)N2CCC(C(=O)N[C@H](CCCCN)C(=O)N3CC[C@H](N)C3)CC2)cc1
CYP2C9
  inhibition at 10 µM: 0.5%
CYP2C19
  inhibition at 10 µM: -4.3%
[1]
  inhibition (INH): Not Active
Collagenase 3
  IC50: > 10 µM
[2]
  fraction unbound: 0.2
HepG2
  Activity: Non-Toxic
CYP3A [3]
  inhibition at 10 µM: 2.5%
CYP2B6
  inhibition at 10 µM: -4.8%
CYP2C8
  inhibition at 10 µM: 14.4%
CYP1A2
  inhibition at 10 µM: -5%
[4]
  fraction unbound: 0.135
Interstitial collagenase
  IC50: > 10 µM
[5]
  IC50: 0.73 µM
CYP3A [6]
  inhibition at 10 µM: -5.2%
[7]
  Vd: 0.179 L/kg
[8]
  clearance: 0.918 mL/min/kg
[9]
  clearance: 3.52 mL/min/kg
CYP3A [10]
  inhibition at 10 µM: -13.9%
